Data: US6201147A, “Process for the resolution of esters of arylalkylcarboxylic acids” (BASF Aktiengesellschaft, priority 1998, dated 2001)

Experiments:
[1] = biological target: T1, Candida antarctica lipase (CAL-B, Chirazyme L-2) (Moesziomyces antarcticus, UniProt P41365); assay: Lipase-catalyzed transesterification with n-hexanol in toluene; assay type: biochemical; details: for equilibrium constant (value in brackets): transesterification of ethyl esters with n-hexanol, calculated according to Anthonsen et al.
T1 construct: purchased Boehringer Mannheim, Penzberg, Germany
T1 sequence (P41365 26-342): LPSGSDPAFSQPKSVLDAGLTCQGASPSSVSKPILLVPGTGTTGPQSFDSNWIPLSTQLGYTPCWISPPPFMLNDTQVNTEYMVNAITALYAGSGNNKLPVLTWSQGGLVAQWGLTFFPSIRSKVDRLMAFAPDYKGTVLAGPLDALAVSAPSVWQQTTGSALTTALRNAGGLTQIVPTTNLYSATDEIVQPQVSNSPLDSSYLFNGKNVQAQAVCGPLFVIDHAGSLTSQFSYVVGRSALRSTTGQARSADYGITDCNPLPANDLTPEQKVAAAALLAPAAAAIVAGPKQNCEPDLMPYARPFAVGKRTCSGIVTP
Description: (§1) If not described otherwise, the ^1 H-NMR spectra were recorded at 250.1 and 500.1 MHz and the ^13 C-NMR spectra at 62.9 and 125.7 MHz in CDCl3 using tetramethylsilane as an internal standard. In cases in which both the racemate and the enatiomeric pure compounds were synthesized, the racemate was used for the full characterization of the compound. […] The gas-chromatography (=GC) analyses were carried out with an Optima 5 column (25 m×0.25 mm; Macherey & Nagel, Duren, Germany) for the determination of the conversion and purity and with a heptakis-(2,3-di-O-acetyl-6-O-TBDMS) -β-cyclodextrin column (25 m×0.25 mm, Prof. W. A. Konig, University of Hamburg, Germany) for the determination of the enantiomeric excess. The immobilized lipase used was Candida antarctica lipase (Chirazyme L-2, c.-f., C2, 5000 U/g) from Boehringer Mannheim, Penzberg, Germany, if not described otherwise. The absolute configuration of the biotransformation products was determined by means of comparison with optically pure standards, which were prepared from the commercially obtainable optically pure carboxylic acids. The enantiomeric excess was calculated by comparison with literature values. The enantioselectivity was determined using the formula E=[ln{(1-c)×(1-ees)}]/[ln{(1-c)×(1+ees)}],
Lipase-catalyzed transesterification: 100 μl of the vinyl esters (0.52 mmol) and 560 μl of n-hexanol (4.49 mmol) were […] stirrer. The reaction was started by addition of 100 mg of CAL-B lipase (500 U) (see Scheme II). Samples were taken from the reaction, diluted with toluene and the lipase was removed by means of centrifugation. The samples were analyzed by GC using the Optima 5 column. After ending the reaction by filtration, product and unreacted substrate were purified by flash chromatography. The enantiomeric purities were determined by means of the specific rotation. In the case of the substrates (±)-3, (±) -4 and (±) -6, the optical purity was additionally determined by means of chiral GC. The ethyl esters were correspondingly reacted as a comparison experiment (see Scheme III). The hydrolysis of the ethyl esters was carried out as a further comparison experiment (see Scheme III).

[2] = biological target: T1, Candida antarctica lipase (CAL-B, Chirazyme L-2); assay: Hydrolysis of the ethyl esters with pH-statting; assay type: biochemical; details: hydrolysis in phosphate buffer 50 mM, pH 7.5, 40° C., calculated according to Chen et al.
Description: as §1
The hydrolysis of the ethyl esters was carried out with pH-statting. In general, 1 mmol of substrate (6-8) was taken up at 40° C. in 20 ml of phosphate buffer (50 mM, pH 7.5). 200 mg of CAL-B (1000 U) were added at the start of the reaction. The pH was kept constant through the reaction using 0.1 N NaOH. After consumption of base indicated a marked conversion of the substrate, unused substrate was removed by means of extraction with heptane. […] The organic phases were dried using Na2 SO4 and the enantiomeric excess was determined for all compounds by means of the specific rotation and for (±)-6 additionally by means of chiral GC.

lipase CAL-B = biological target: T2, lipase CAL-B (Moesziomyces antarcticus, UniProt P41365); assay: Lipase-catalyzed transesterification with methanol in toluene; assay type: biochemical, Candida antarctica; details: 40° C., 5 hours, calculated from conversion and eep
T2 construct: purchased Boehringer Mannheim
T2 sequence (P41365 26-342): T1 sequence (P41365 26-342)
Description: The racemic ibuprofen vinyl ester (209 mg, 0.90 mmol) and methanol (240 mg, 7.5 mmol) were disolved in 8 ml toluene and stirred at 40° C. The reaction was started by adding 416 mg of lipase CAL-B (L-2, c.f., C2, lyo.; Boehringer Mannheim). After 5 hours, the reaction was completed by filtering off the lipase, and the reaction mixture was analyzed by gas chromatography in a chiral column (2,3 di-O-methyl-6-O-pentyl-ε-cyclodextrin). The product and unreacted substrate were purified by flash chromatography on silica gel (developer: ligroin/diethyl ether 35:1). Conversion (GC): 40.5%; Yields: ibuprofen methyl ester 64 mg (0.29 mmol; 32%), eep =76% (GC); ibuprofen vinyl ester 98 mg (0.42 mmol, 47%), ees =[…] (calculated from conversion and eep). An E value of 12 is calculated from conversion and eep.

[3] = transesterification with n-hexanol in toluene, 40° C., CAL-B, calculated according to Chen et al.

CCOC(=O)C(CC)c1ccccc1 (racemic) [(±)-6, Ethyl (±)-2-phenylbutyrate]
equilibrium constant (value in brackets) ([1]; 40° C.): 110 | E (enantioselectivity) [1, 3]: 5.7 | E (enantioselectivity) [2]: 3.7

C=COC(=O)C(CC)c1ccccc1 (racemic) [(±)-3, Vinyl (±)-2-phenylbutyrate]
E (enantioselectivity) [1, 3]: > 100

CCOC(=O)C(C)c1ccccc1 (racemic) [(±)-7, Ethyl (±)-2-phenylpropionate]
equilibrium constant (value in brackets) ([1]; 40° C.): 123 | E (enantioselectivity) [1, 3]: 6.8 | E (enantioselectivity) [2]: 3.5

C=COC(=O)C(C)c1ccc(CC(C)C)cc1 (racemic) [ibuprofen vinyl ester]
E value (lipase CAL-B): 12

C=COC(=O)CC(C)c1ccccc1 (racemic) [(±)-5, Vinyl (±)-3-phenylbutyrate]
E (enantioselectivity) ([1]; transesterification with n-hexanol in toluene at room temperature (about 23° C.)): 23 | E (enantioselectivity) [1, 3]: 13

CCOC(=O)CC(C)c1ccccc1 (racemic) [(±)-8, Ethyl (±) -3-phenylbutyrate]
equilibrium constant (value in brackets) ([1]; 40° C.): 135 | E (enantioselectivity) [1, 3]: 4.9 | E (enantioselectivity) [2]: 9

C=COC(=O)C(C)c1ccccc1 (racemic) [(±)-4, Vinyl (±)-2-phenylpropionate]
E (enantioselectivity) [1, 3]: 26
